Experimental data published in US20240109917A1 (ACTELION PHARMACEUTICALS LTD, priority 2020, published 2024).

Biological target: His6-TEV-PDGFRβ (557-1016) (Homo sapiens (Human), UniProt P09619)
Test: PDGFRβ HTRF Assay
Type: biochemical
Conditions: read-out: PDGFR HTRF IC50
How it was run: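 Human PDGFRβ (557-1016) pre-incubated with compound for 30 min at RT in pH 7.5 HEPES/MgCl2/EGTA/Brij-35/DTT buffer. Reaction started with ATP and TK-biotin peptide, run 3 h at RT, then quenched with EDTA-containing Eu-cryptate antibody/streptavidin-XL665. HTRF 665/620 nm ratio read after 60 min; percent inhibition relative to DMSO and 10 μM imatinib controls.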

Sequence of His6-TEV-PDGFRβ (557-1016) (P09619 557-1016): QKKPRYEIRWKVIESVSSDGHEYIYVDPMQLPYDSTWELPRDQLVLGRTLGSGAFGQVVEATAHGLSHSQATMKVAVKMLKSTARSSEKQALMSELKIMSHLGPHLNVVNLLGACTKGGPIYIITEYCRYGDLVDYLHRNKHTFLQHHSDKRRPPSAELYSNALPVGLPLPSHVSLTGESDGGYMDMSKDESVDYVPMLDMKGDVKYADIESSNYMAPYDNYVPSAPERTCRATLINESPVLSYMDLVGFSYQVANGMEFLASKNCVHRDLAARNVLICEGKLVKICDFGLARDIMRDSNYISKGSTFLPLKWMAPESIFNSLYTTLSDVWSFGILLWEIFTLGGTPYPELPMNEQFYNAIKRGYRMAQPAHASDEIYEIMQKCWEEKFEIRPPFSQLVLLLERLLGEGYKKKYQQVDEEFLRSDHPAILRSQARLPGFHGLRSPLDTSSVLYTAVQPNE

Row | Compound | IC50 [nM]
1 | COCCn1cc(-c2cn3ncc(C(=O)Nc4cc(NC(=O)CCN5CCC6(CC6)C5)cnc4C)c3s2)cn1 [Example 91, N-(5-(3-(5-azaspiro[2.4]heptan-5-yl)propanamido)-2-methylpyridin-3-yl)-2-(1-(2-methoxyethyl)-1H-pyrazol-4-yl)pyrazolo[5,1-b]thiazole-7-carboxamide] | 0.5
2 | COCCn1cc(-c2cn3ncc(C(=O)Nc4cc(NC(=O)C(C)(C)CN5CCCC5(C)C)cnc4C)c3s2)cn1 [Example 488, N-(5-(3-(2,2-dimethylpyrrolidin-1-yl)-2,2-dimethyl-propanamido)-2-methylpyridin-3-yl)-2-(1-(2-methoxyethyl)-1H-pyrazol-4-yl)pyrazolo[5,1-b]thiazole-7-carboxamide] | 92.3
3 | CC[C@H]1CN(CC(=O)Nc2cnc(C)c(NC(=O)c3cnn4cc(-c5cnn(C)c5)sc34)c2)CCO1 [Example 66, (S)—N-(5-(2-(2-ethylmorpholino)acetamido)-2-methylpyridin-3-yl)-2-(1-methyl-1H-pyrazol-4-yl)pyrazolo[5,1-b]thiazole-7-carboxamide] | 0.3
4 | Cc1ncc(NC(=O)CN2CCS(=O)(=O)CC2)cc1NC(=O)c1cnn2cc(-c3cnn(C)c3)sc12 [Example 59, N-(5-(2-(1,1-dioxidothiomorpholino)acetamido)-2-methylpyridin-3-yl)-2-(1-methyl-1H-pyrazol-4-yl)pyrazolo[5,1-b]thiazole-7-carboxamide] | 2.1
5 | COCCn1cc(-c2cn3ncc(C(=O)Nc4cc(NC(=O)CCN5CCC(C)(C)C5)cnc4C)c3s2)cn1 [Example 89, N-(5-(3-(3,3-dimethylpyrrolidin-1-yl)propanamido)-2-methylpyridin-3-yl)-2-(1-(2-methoxyethyl)-1H-pyrazol-4-yl)pyrazolo[5,1-b]thiazole-7-carboxamide] | 0.6
6 | COCCn1cc(-c2cn3ncc(C(=O)Nc4cc(NC(=O)C[C@H]5CCN(C(C)C)C5)cnc4C)c3s2)cn1 [Example 486, (R)—N-(5-(2-(1-isopropylpyrrolidin-3-yl)acetamido)-2-methylpyridin-3-yl)-2-(1-(2-methoxyethyl)-1H-pyrazol-4-yl)pyrazolo[5,1-b]thiazole-7-carboxamide] | 2.6
7 | Cc1ncc(NC(=O)CN2CCC3(CC2)COC3)cc1NC(=O)c1cnn2cc(-c3cnn(C)c3)sc12 [Example 46, N-(5-(2-(2-oxa-7-azaspiro[3.5]nonan-7-yl)acetamido)-2-methylpyridin-3-yl)-2-(1-methyl-1H-pyrazol-4-yl)pyrazolo[5,1-b]thiazole-7-carboxamide] | 3
8 | Cc1ncc(NC(=O)CN2CCOC[C@H]2C)cc1NC(=O)c1cnn2cc(-c3cnn(C)c3)sc12 [Example 50, (R)-2-(1-methyl-1H-pyrazol-4-yl)-N-(2-methyl-5-(2-(3-methylmorpholino)acetamido)pyridin-3-yl)pyrazolo[5,1-b]thiazole-7-carboxamide] | 0.6
9 | CC[C@H]1COCCN1CC(=O)Nc1cnc(C)c(NC(=O)c2cnn3cc(-c4cnn(C)c4)sc23)c1 [Example 70, (S)—N-(5-(2-(3-ethylmorpholino)acetamido)-2-methylpyridin-3-yl)-2-(1-methyl-1H-pyrazol-4-yl)pyrazolo[5,1-b]thiazole-7-carboxamide] | 0.2
10 | Cc1ncc(NC(=O)CN2[C@H](C)COC[C@@H]2C)cc1NC(=O)c1cnn2cc(-c3cnn(C)c3)sc12 [Example 71, N-(5-(2-((3S,5R)-3,5-dimethylmorpholino)acetamido)-2-methylpyridin-3-yl)-2-(1-methyl-1H-pyrazol-4-yl)pyrazolo[5,1-b]thiazole-7-carboxamide] | 2.9
11 | Cc1ncc(NC(=O)CN2CCOCC2)cc1NC(=O)c1cnn2cc(-c3cnn(C)c3)sc12 [Example 55, 2-(1-methyl-1H-pyrazol-4-yl)-N-(2-methyl-5-(2-morpholinoacetamido)pyridin-3-yl)pyrazolo[5,1-b]thiazole-7-carboxamide] | 1.5
12 | Cc1ncc(NC(=O)CN2CCCC23CC3)cc1NC(=O)c1cnn2cc(-c3cnn(CCO)c3)sc12 [Example 87, N-(5-(2-(4-azaspiro[2.4]heptan-4-yl)acetamido)-2-methylpyridin-3-yl)-2-(1-(2-hydroxyethyl)-1H-pyrazol-4-yl)pyrazolo[5,1-b]thiazole-7-carboxamide] | 0.4
13 | Cc1ncc(NC(=O)CN2CCc3ncccc3C2)cc1NC(=O)c1cnn2cc(-c3cnn(C)c3)sc12 [Example 63, N-(5-(2-(7,8-dihydro-1,6-naphthyridin-6 (5H)-yl)acetamido)-2-methylpyridin-3-yl)-2-(1-methyl-1H-pyrazol-4-yl)pyrazolo[5,1-b]thiazole-7-carboxamide] | 2.9
14 | Cc1ncc(NC(=O)CNC2CCC2)cc1NC(=O)c1cnn2cc(-c3cnn4c3OCCC4)sc12 [Example 494, N-(5-(2-(cyclobutylamino)acetamido)-2-methylpyridin-3-yl)-2-(6,7-dihydro-5H-pyrazolo[5,1-b][1,3]oxazin-3-yl)pyrazolo[5,1-b]thiazole-7-carboxamide] | 0.4
15 | Cc1ncc(NC(=O)CN2CCCC(F)(F)C2)cc1NC(=O)c1cnn2cc(-c3cnn(C)c3)sc12 [Example 49, N-(5-(2-(3,3-difluoropiperidin-1-yl)acetamido)-2-methylpyridin-3-yl)-2-(1-methyl-1H-pyrazol-4-yl)pyrazolo[5,1-b]thiazole-7-carboxamide] | 0.4
16 | Cc1ncc(NC(=O)CN2CCCOCC2)cc1NC(=O)c1cnn2cc(-c3cnn(C)c3)sc12 [Example 80, N-(5-(2-(1,4-oxazepan-4-yl)acetamido)-2-methylpyridin-3-yl)-2-(1-methyl-1H-pyrazol-4-yl)pyrazolo[5,1-b]thiazole-7-carboxamide] | 1.4
17 | Cc1ncc(NC(=O)CN2CCc3cnccc3C2)cc1NC(=O)c1cnn2cc(-c3cnn(C)c3)sc12 [Example 62, N-(5-(2-(3,4-dihydro-2,6-naphthyridin-2 (1H)-yl)acetamido)-2-methylpyridin-3-yl)-2-(1-methyl-1H-pyrazol-4-yl)pyrazolo[5,1-b]thiazole-7-carboxamide] | 1.4
18 | Cc1ncc(NC(=O)CN2CCC3(CCO3)CC2)cc1NC(=O)c1cnn2cc(-c3cnn(C)c3)sc12 [Example 81, N-(5-(2-(1-oxa-7-azaspiro[3.5]nonan-7-yl)acetamido)-2-methylpyridin-3-yl)-2-(1-methyl-1H-pyrazol-4-yl)pyrazolo[5,1-b]thiazole-7-carboxamide] | 2.8
19 | Cc1ncc(NC(=O)CCN2CC3CCC2CC3)cc1NC(=O)c1cnn2cc(-c3cnn(C)c3)sc12 [Example 43, N-(5-(3-(2-azabicyclo[2.2.2]octan-2-yl)propanamido)-2-methylpyridin-3-yl)-2-(1-methyl-1H-pyrazol-4-yl)pyrazolo[5,1-b]thiazole-7-carboxamide] | 0.23
20 | COC1CCN(CC(=O)Nc2cnc(C)c(NC(=O)c3cnn4cc(-c5cnn(C)c5)sc34)c2)CC1 [Example 83, N-(5-(2-(4-methoxypiperidin-1-yl)acetamido)-2-methylpyridin-3-yl)-2-(1-methyl-1H-pyrazol-4-yl)pyrazolo[5,1-b]thiazole-7-carboxamide] | 2.3
21 | Cc1ncc(NC(=O)CNC2(C)CCC2)cc1NC(=O)c1cnn2cc(-c3cnn4c3OCCC4)sc12 [Example 495, 2-(6,7-dihydro-5H-pyrazolo[5,1-b][1,3]oxazin-3-yl)-N-(2-methyl-5-(2-((1-methylcyclobutyl)amino)acetamido)pyridin-3-yl)pyrazolo[5,1-b]thiazole-7-carboxamide] | 0.3
22 | Cc1ncc(NC(=O)CN2CCN(C)C(=O)C2)cc1NC(=O)c1cnn2cc(-c3cnn(C)c3)sc12 [Example 72, 2-(1-methyl-1H-pyrazol-4-yl)-N-(2-methyl-5-(2-(4-methyl-3-oxopiperazin-1-yl)acetamido)pyridin-3-yl)pyrazolo[5,1-b]thiazole-7-carboxamide] | 5.7
23 | COCCn1cc(-c2cn3ncc(C(=O)Nc4cc(NC(=O)CCN5CCC6(CCC6)C5)cnc4C)c3s2)cn1 [Example 90, N-(5-(3-(6-azaspiro[3.4]octan-6-yl)propanamido)-2-methylpyridin-3-yl)-2-(1-(2-methoxyethyl)-1H-pyrazol-4-yl)pyrazolo[5,1-b]thiazole-7-carboxamide] | 0.5
24 | Cc1ncc(NC(=O)CN2C[C@@H](C)O[C@@H](C)C2)cc1NC(=O)c1cnn2cc(-c3cnn(C)c3)sc12 [Example 53, N-(5-(2-((2R,6S)-2,6-dimethylmorpholino)acetamido)-2-methylpyridin-3-yl)-2-(1-methyl-1H-pyrazol-4-yl)pyrazolo[5,1-b]thiazole-7-carboxamide] | 0.3
25 | Cc1ncc(NC(=O)CN2CCc3ncsc3C2)cc1NC(=O)c1cnn2cc(-c3cnn(C)c3)sc12 [Example 58, N-(5-(2-(6,7-dihydrothiazolo[5,4-c]pyridin-5 (4H)-yl)acetamido)-2-methylpyridin-3-yl)-2-(1-methyl-1H-pyrazol-4-yl)pyrazolo[5,1-b]thiazole-7-carboxamide] | 1
26 | Cc1ncc(NC(=O)CN2CCCCC23CC3)cc1NC(=O)c1cnn2cc(-c3cnn(CCO)c3)sc12 [Example 86, N-(5-(2-(4-azaspiro[2.5]octan-4-yl)acetamido)-2-methylpyridin-3-yl)-2-(1-(2-hydroxyethyl)-1H-pyrazol-4-yl)pyrazolo[5,1-b]thiazole-7-carboxamide] | 1.3
27 | Cc1ncc(NC(=O)CN2Cc3cccnc3C2)cc1NC(=O)c1cnn2cc(-c3cnn(C)c3)sc12 [Example 48, N-(5-(2-(5H-pyrrolo[3,4-b]pyridin-6 (7H)-yl)acetamido)-2-methylpyridin-3-yl)-2-(1-methyl-1H-pyrazol-4-yl)pyrazolo[5,1-b]thiazole-7-carboxamide] | 1.4
28 | Cc1ncc(C(=O)NCCN2CC3CCC2CC3)cc1NC(=O)c1cnn2cc(-c3ccnc(N4CCOCC4)c3)sc12 [Example 484, N-(5-((2-(2-azabicyclo[2.2.2]octan-2-yl)ethyl)carbamoyl)-2-methylpyridin-3-yl)-2-(2-morpholinopyridin-4-yl)pyrazolo[5,1-b]thiazole-7-carboxamide] | 0.2
